Source: PMC9785202, “Changes in Disposition of Ezetimibe and Its Active Metabolites Induced by Impaired Hepatic Function: The Influence of Enzyme and Transporter Activities” (Pharmaceutics, 2022)
Like-named read-outs stand apart in the source and are kept apart here. One block for each compound: values may come before it.

Assays:
UGTs = experiment: Incubation of EZE with liver S9 fractions of control and CCl4-induced rats (glucuronidation); type: in vitro ADME, rat; conditions: 60 min
Procedure: One portion of the rat liver tissue was homogenized in a 5-fold volume of ice-cold phosphate buffer (including 250 mM sucrose, 10 mM Tris-HCl, and 1 mM EDTA-2Na, pH 7.4) and centrifugated at 9000 g for 20 min. After centrifugation, the supernatant was collected as the S9 fraction and stored at −80 °C.
To evaluate the effect of hepatic impairment on the hepatic metabolism of EZE, 0.3 μM, 3 μM, and 30 μM EZE were incubated with rat liver S9 fractions (2 mg of protein/mL) at 37 °C for 60 min in the Tris-HCl-buffered system (100 mM, pH 7.4), consisting of UDPGA (1 mM), MgCl2 (10 mM), and alamethicin (25 μg/mL). To investigate the effect of bile acids on the metabolism of EZE in the liver, 3 μM EZE was incubated with rat or human liver S9 fractions (2 mg of protein/mL) at 37 °C for 60 min in the Tris-HCl-buffered system with or without bile acids at 1, 10, and 100 μM. The total volume of the incubation system was 100 μL. The reactions were terminated by adding 100 μL of ice-cold acetonitrile. Samples were stored at −20 °C until analysis. EZE and EZE-Ph were detected by liquid chromatography with tandem mass spectrometry (LC-MS/MS).

MDR1 = target: T1, MDR1 (Homo sapiens, UniProt P08183); experiment: Transport study with MDR1-expressing membrane vesicles; type: in vitro ADME; conditions: 10 μM, 10 min
T1 construct: purchased GenoMembrane Co., Ltd. (Yokohama, Japan); host or cells: Sf9 insect cells
Procedure: (§1) Human MDR1-, MRP2-, and MRP3-expressing membrane vesicles isolated from Sf9 insect cells were sourced from GenoMembrane Co., Ltd. (Yokohama, Japan).
(§2) In transport studies, a modified rapid filtration technique was used according to the manufacturer’s protocol (GenoMembrane Co.). The uptake of test compounds (10 μM EZE or EZE-Ph) into membrane vesicles (100 μg protein/100 μL) was conducted with or without 4 mM ATP in the transport medium (50 μL, pH 7.4), which included 50 mM MOPS-Tris, 70 mM KCl, and 7.5 mM MgCl2. The vesicular transport was terminated after 10 min by adding 200 μL of ice-cold stop buffer containing 40 mM MOPS-Tris and 70 mM KCl. The stopped incubate was quickly transferred to a 96-well glass fiber filter plate (Millipore, MA, USA) and washed five times with ice-cold stop buffer. The EZE and EZE-Ph inside the vesicles were released by adding 200 μL of methanol–water (70:30, v/v) and analyzed by LC-MS/MS. The ATP-dependent transport was evaluated based on the ratio of transport with ATP to that without ATP.

rat primary hepatocytes = experiment: Uptake of EZE and EZE-Ph by rat primary hepatocytes; type: in vitro ADME; conditions: 10 μM, 10 min
Procedure: Rat primary hepatocytes were isolated from male SD rats as previously described [34]. Fresh rat hepatocytes (120,000 per well) were cultured in Williams’ E medium (containing 0.1 μM dexamethasone, 5% fetal bovine serum, 1% penicillin G/streptomycin, 1% GlutaMAX-I, and 1% insulin–transferrin–selenium) on collagen I-coated 48-well plates. Rat hepatocytes cultured for 4 h under a carbogen atmosphere were directly used for uptake assays.
The hepatocytes were rinsed three times with HBSS (37 °C) and equilibrated in HBSS for 10 min. […] After 10 min of incubation, cells were quickly washed three times with ice-cold HBSS and then lysed by the addition of 300 μL of purified water. The protein content was measured using the BCA protein assay kit. EZE and EZE-Ph were analyzed by LC-MS/MS.
The rates of substrate uptake were normalized using the protein contents of cell lysates.

[1] = Pharmacokinetics after intravenous or oral administration of 10 mg/kg EZE to control and CCl4-induced rats; type: in vivo; conditions: for AUC(0-t) / half-life / Cmax at 5 min / Cmax / Tmax: Sprague-Dawley, rat, plasma, 10 mg/kg; for Cmax at 5 min: read-out: Cmax (* plasma concentration at 5 min after intravenous injection)
Procedure: Animals were fasted for 12 h with free access to water before the experiments. EZE was administered orally (prepared in 0.5% carboxymethylcellulose sodium) or intravenously (dissolved in 10% dimethyl sulfoxide, 10% tween-80, and 80% sterile H2O) to CCl4-induced rats (n = 5) and control rats (n = 5) at 10 mg/kg. Blood samples were collected from the retro-orbital venous plexus before administration (0 h), at 5, 15, and 30 min, and at 1, 2, 4, 6, 8, 12, 24, and 48 h after administration in tubes containing EDTA-2K. Plasma samples were harvested by centrifugation at 11,600 g for 5 min at 4 °C and then stored at −80 °C until further analysis.
(§3) A 25.0 μL aliquot of each sample and 25.0 μL of internal standard (50.0 ng/mL EZE-d4) were mixed with 100 μL of acetonitrile. After the samples were vortexed and centrifugated at 2250 g for 15 min, the supernatants were used to measure EZE and its metabolites by LC-MS/MS.
(§4) WinNonlin version 6.1 (Pharsight Corp., Cary, NC, USA) was used to calculate the pharmacokinetic parameters in a non-compartmental model. Statistical comparisons between the two groups were evaluated using a Student’s two-tailed unpaired t-test or the nonparametric Mann–Whitney test in GraphPad Prism (version 8.0, GraphPad Software Inc, SanDiego, CA, USA). A value of p < 0.05 was considered significant. All data were presented as the mean ± S.D. (n ≥ 3).

[2] = for Autosampler stability (4°C, 24 h), RE / Post-extraction stability (room temperature 3 h), RE / Freeze-thaw stability (−20°C, three cycles), RE / Short-term stability (room temperature 3 h), RE: n = 6; for stability in rat plasma under the test conditions: LQC and HQC samples, short-term, post-extraction, auto-sampler, three freeze/thaw cycles; for Freeze-thaw stability (−20°C, three cycles), RE / Short-term stability (room temperature 3 h), RE: rat plasma; for stability in blood: room temperature for 2 h
Procedure: The instrument parameters were as follows: ion spray voltage, −4500 V; source temperature, 550 °C; nebulizer gas, 60 psi; heater gas, 60 psi; and curtain gas, 40 psi. […] Data were acquired and processed with the Analyst 1.6.3 software (Applied Biosystems). The standard curve ranges were 1.00 to 1000 ng/mL for EZE, 3.00 to 3000 ng/mL for EZE-Ph, and 1.00 to 1000 ng/mL for EZE-Hy in plasma.
Summary of the stability of ezetimibe and its metabolites in rat plasma (n = 6).

MRP2 = target: T2, MRP2 (Homo sapiens, UniProt Q92887); experiment: Transport study with MRP2-expressing membrane vesicles; type: in vitro ADME; conditions: 10 μM, 10 min
T2 construct: purchased GenoMembrane Co., Ltd. (Yokohama, Japan); host or cells: Sf9 insect cells
Procedure: as §1, §2

MRP3 = target: T3, MRP3 (Homo sapiens, UniProt O15438); experiment: Transport study with MRP3-expressing membrane vesicles; type: in vitro ADME; conditions: 10 μM, 10 min
T3 construct: purchased GenoMembrane Co., Ltd. (Yokohama, Japan); host or cells: Sf9 insect cells
Procedure: as §1, §2

[3] = Portal vein and femoral vein plasma pharmacokinetics after oral EZE; type: in vivo, rats; conditions: oral 10 mg/kg EZE; for AUC(0-t): Sprague-Dawley, rat, po, 10 mg/kg
Procedure: To investigate changes due to the first-pass metabolism and biliary excretion during liver disease, CCl4-induced rats (n = 5) and control rats (n = 5) were anesthetized and the hepatic portal and femoral veins were cannulated with PE-50 polyethylene tubing. EZE was orally administered to rats at 10 mg/kg. Blood samples were collected simultaneously from the hepatic portal and femoral veins before administration (0 h), at 5, 15, and 30 min, and at 1, 2, 4, 6, 8, 12, 24, and 48 h after administration. Plasma samples were harvested as previously described.
as §3, §4

[4] = iv, i.v. 10 mg/kg EZE, CCl4-induced rats
[5] = iv, i.v. 10 mg/kg EZE, control rats
[6] = po, p.o. 10 mg/kg EZE, CCl4-induced rats
[7] = po, p.o. 10 mg/kg EZE, control rats
[8] = intravenous injection of 10 mg/kg EZE
[9] = oral administration of 10 mg/kg EZE
[10] = LQC (EZE/EZE-Ph/EZE-Hy 3.00/9.00/3.00 ng/ml)
[11] = femoral vein plasma, CCl4-induced rats, read-out: AUC0–t in femoral vein plasma
[12] = femoral vein plasma, control rats, read-out: AUC0–t in femoral vein plasma
[13] = portal vein plasma, CCl4-induced rats, read-out: AUC0–t in portal vein plasma
[14] = portal vein plasma, control rats, read-out: AUC0–t in portal vein plasma

T1 sequence (P08183 whole entry): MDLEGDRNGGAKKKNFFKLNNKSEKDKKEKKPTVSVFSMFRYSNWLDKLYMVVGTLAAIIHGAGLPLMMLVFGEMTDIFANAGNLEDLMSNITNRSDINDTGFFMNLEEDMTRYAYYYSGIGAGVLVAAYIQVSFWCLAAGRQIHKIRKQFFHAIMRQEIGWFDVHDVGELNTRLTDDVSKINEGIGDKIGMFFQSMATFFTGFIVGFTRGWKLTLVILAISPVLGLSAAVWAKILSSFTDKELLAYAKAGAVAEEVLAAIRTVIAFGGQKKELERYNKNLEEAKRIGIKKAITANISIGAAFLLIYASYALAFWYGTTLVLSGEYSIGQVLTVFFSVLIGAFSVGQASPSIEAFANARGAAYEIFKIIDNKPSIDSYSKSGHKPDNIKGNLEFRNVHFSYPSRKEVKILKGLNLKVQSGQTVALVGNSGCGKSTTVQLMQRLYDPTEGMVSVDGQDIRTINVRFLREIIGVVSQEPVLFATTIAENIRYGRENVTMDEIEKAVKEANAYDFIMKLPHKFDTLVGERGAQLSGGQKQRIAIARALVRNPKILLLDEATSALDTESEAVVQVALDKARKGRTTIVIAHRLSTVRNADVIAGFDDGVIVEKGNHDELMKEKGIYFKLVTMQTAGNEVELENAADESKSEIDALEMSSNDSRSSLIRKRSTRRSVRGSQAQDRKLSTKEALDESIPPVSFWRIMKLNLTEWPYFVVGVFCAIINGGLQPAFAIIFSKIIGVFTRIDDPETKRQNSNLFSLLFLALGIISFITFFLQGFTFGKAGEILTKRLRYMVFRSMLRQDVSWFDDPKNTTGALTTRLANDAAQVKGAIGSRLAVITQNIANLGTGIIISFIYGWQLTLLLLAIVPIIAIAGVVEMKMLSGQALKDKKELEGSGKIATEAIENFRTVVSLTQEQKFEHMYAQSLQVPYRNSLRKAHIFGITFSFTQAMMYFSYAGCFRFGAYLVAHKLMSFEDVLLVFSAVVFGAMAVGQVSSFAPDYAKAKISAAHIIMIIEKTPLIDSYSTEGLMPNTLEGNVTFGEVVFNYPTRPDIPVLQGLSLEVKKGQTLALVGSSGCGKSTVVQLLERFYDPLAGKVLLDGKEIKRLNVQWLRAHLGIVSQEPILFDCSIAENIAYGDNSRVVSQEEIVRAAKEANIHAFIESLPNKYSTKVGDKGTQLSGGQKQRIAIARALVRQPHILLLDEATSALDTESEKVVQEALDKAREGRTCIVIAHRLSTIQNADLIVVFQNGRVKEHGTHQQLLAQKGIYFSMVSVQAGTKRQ
T3 sequence (O15438 whole entry): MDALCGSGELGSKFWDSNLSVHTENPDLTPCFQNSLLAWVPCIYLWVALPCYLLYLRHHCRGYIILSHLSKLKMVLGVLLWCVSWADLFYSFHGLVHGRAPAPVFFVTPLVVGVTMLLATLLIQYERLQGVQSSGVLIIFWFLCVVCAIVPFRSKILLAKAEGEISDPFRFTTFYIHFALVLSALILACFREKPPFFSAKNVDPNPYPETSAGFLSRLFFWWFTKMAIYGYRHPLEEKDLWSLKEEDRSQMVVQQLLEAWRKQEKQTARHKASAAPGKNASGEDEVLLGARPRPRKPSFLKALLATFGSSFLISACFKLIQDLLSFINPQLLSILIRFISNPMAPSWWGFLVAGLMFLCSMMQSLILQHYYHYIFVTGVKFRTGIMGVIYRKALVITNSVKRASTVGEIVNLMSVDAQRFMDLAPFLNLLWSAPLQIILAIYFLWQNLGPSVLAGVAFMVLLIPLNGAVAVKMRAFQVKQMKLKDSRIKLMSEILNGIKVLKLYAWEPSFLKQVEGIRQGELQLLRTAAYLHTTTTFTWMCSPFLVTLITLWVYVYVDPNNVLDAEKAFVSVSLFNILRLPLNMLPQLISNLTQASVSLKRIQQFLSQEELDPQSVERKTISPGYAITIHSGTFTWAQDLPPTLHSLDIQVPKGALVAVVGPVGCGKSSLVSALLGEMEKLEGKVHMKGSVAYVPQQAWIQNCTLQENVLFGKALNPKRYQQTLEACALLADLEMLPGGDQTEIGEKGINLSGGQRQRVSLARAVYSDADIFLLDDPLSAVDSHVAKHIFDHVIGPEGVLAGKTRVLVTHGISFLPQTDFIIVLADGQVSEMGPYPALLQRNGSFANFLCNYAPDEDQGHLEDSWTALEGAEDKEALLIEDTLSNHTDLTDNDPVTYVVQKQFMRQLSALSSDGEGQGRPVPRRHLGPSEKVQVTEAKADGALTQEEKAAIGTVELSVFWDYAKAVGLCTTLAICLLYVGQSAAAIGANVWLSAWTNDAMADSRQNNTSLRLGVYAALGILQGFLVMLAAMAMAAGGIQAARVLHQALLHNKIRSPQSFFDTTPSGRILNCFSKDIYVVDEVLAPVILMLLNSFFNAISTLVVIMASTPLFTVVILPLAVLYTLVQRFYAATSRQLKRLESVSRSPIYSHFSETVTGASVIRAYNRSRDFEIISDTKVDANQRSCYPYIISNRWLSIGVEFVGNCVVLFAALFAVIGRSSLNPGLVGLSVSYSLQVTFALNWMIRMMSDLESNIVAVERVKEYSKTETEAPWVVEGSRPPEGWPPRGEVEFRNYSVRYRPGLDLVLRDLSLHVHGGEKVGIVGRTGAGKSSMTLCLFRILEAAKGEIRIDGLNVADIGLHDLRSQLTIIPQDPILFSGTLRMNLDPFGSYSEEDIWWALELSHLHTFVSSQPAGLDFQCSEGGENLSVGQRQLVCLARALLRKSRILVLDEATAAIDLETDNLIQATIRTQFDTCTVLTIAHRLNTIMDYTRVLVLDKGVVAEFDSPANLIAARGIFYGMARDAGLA
T2 sequence (Q92887 whole entry): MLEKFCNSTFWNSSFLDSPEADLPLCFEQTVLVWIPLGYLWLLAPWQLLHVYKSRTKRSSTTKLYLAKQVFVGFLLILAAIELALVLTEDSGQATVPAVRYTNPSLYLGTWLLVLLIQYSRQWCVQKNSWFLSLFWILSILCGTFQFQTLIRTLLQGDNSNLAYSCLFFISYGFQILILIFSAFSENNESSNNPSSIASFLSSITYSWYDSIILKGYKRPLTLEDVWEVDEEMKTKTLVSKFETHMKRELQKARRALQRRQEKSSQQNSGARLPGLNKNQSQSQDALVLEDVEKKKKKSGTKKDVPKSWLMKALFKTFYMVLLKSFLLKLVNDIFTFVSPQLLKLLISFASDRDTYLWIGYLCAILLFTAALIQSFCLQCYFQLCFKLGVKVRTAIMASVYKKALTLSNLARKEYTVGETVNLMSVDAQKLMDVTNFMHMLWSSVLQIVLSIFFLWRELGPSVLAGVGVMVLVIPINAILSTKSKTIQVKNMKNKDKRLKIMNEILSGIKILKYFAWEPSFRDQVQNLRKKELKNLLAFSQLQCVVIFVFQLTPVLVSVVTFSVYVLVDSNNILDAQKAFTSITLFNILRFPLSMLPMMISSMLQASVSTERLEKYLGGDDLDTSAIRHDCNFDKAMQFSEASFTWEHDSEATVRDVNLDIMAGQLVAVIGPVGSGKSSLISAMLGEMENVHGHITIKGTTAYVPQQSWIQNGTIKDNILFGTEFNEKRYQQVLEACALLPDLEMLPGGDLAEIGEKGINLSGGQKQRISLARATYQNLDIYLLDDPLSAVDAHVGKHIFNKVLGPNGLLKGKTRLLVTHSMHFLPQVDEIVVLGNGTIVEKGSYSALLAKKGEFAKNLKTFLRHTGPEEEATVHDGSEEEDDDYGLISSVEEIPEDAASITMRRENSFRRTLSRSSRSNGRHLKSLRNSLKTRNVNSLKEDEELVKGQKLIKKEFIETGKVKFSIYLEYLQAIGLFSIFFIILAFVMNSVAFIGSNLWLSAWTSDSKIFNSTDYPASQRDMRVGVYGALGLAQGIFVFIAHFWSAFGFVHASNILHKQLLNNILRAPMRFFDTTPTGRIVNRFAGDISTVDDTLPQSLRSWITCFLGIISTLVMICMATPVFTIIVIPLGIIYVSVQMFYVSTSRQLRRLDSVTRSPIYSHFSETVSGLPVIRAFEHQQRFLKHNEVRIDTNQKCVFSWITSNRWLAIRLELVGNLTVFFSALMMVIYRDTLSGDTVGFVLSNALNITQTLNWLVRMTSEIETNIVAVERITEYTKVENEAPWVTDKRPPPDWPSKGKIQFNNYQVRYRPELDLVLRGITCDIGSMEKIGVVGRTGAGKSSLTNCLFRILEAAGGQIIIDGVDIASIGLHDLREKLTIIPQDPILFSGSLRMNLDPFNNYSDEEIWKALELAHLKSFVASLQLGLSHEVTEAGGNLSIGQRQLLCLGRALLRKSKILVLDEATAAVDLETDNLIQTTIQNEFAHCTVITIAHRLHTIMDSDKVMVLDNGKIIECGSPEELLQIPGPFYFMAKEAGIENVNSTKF

- increase of residue of EZE in CCl4-induced rats compared with control rats (UGTs; liver S9, 0.3 μM EZE): 4.15 fold
- increase of residue of EZE in CCl4-induced rats compared with control rats (UGTs; liver S9, 3 μM EZE): 5.00 fold
- increase of residue of EZE in CCl4-induced rats compared with control rats (UGTs; liver S9, 30 μM EZE): 1.40 fold
- ATP-dependent transport via MDR1 membrane vesicles (MDR1): No significant ATP-dependent transport
- temperature dependence of uptake into isolated rat hepatocytes (rat primary hepatocytes; 37 °C vs 4 °C): independent of temperature
- AUC(0-t) [1, 4]: 4610 ± 781 ng·h/mL
- half-life [1, 4]: 460 ± 185 min
- Cmax at 5 min [1, 4]: 2950 ± 571 ng/mL
- AUC(0-t) [1, 5]: 2180 ± 304 ng·h/mL
- half-life [1, 5]: 406 ± 199 min
- Cmax at 5 min [1, 5]: 1560 ± 361 ng/mL
- AUC(0-t) [1, 6]: 189 ± 66 ng·h/mL
- Cmax [1, 6]: 20.4 ± 8.1 ng/mL
- Tmax [1, 6]: 5.2 ± 3.9 h
- half-life [1, 6]: 738 ± 318 min
- AUC(0-t) [1, 7]: 17 ± 10 ng·h/mL
- Cmax [1, 7]: 2.63 ± 2.68 ng/mL
- Tmax [1, 7]: 4.95 ± 4.84 h
- half-life [1, 7]: 334 ± 227 min
- AUC0–t, fold higher in CCl4-induced rats than in control rats [1, 8]: 2.1 fold
- AUC0–t, fold higher in CCl4-induced rats than in control rats [1, 9]: 11.1 fold
- share in plasma relative to the main circulating component EZE-Ph [1, 9]: 0.4%
- Autosampler stability (4°C, 24 h), RE ([2]; HQC (800/2400/800 ng/ml)): 3.9%
- Post-extraction stability (room temperature 3 h), RE ([2]; HQC (800/2400/800 ng/ml)): 3.9%
- Autosampler stability (4°C, 24 h), RE ([2]; LQC (3.00/9.00/3.00 ng/ml)): 0.6%
- Post-extraction stability (room temperature 3 h), RE ([2]; LQC (3.00/9.00/3.00 ng/ml)): 0.7%
- stability in rat plasma under the test conditions [2]: stable
- Freeze-thaw stability (−20°C, three cycles), RE ([2]; HQC (800/2400/800 ng/ml)): 1.1%
- Short-term stability (room temperature 3 h), RE ([2]; HQC (800/2400/800 ng/ml)): -5.6%
- Freeze-thaw stability (−20°C, three cycles), RE ([2]; LQC (3.00/9.00/3.00 ng/ml)): -1.0%
- Short-term stability (room temperature 3 h), RE [2, 10]: -11.2%
- stability in blood [2]: stable
- ATP-dependent transport via MRP2 membrane vesicles (MRP2): No significant ATP-dependent transport
- ATP-dependent transport via MRP3 membrane vesicles (MRP3): No significant ATP-dependent transport
- AUC(0-t) [3, 11]: 191 ng·h/mL
- AUC(0-t) [3, 12]: 56.2 ng·h/mL
- AUC(0-t) [3, 13]: 352 ng·h/mL
- AUC(0-t) [3, 14]: 1850 ng·h/mL
- AUC0-t in portal vein, decrease in CCl4-induced rats compared with control rats [3]: 81.0%
- AUC0–t portal vein plasma vs femoral vein plasma, fold higher ([3]; CCl4-induced rats): 1.84 fold
- AUC0–t portal vein plasma vs femoral vein plasma, fold higher ([3]; control rats): 33.0 fold
- time of second absorption peak ([3]; control rats): 9.5 h
SMILES: O=C1[C@H](CC[C@H](O)c2ccc(F)cc2)[C@@H](c2ccc(O)cc2)N1c1ccc(F)cc1 [EZE, 1-(4-fluorophenyl)-3(R)-[3-(4-fluorophenyl)-3(S)-hydroxypropyl]-4(S)-(4-hydroxyphenyl)-2-azetidinone, reference compound]

- decrease of formation of EZE-Ph in CCl4-induced rats compared with control rats (UGTs; liver S9, 0.3 μM EZE): 8.80%
- decrease of formation of EZE-Ph in CCl4-induced rats compared with control rats (UGTs; liver S9, 3 μM EZE): 12.7%
- decrease of formation of EZE-Ph in CCl4-induced rats compared with control rats (UGTs; liver S9, 30 μM EZE): 27.4%
- +ATP/-ATP ratio (MDR1; MDR1 vesicles): 5.64
- uptake at 37 °C relative to that at 4 °C (rat primary hepatocytes; rat hepatocytes): 50.0 times
- AUC(0-t) [1, 4]: 40400 ± 1810 ng·h/mL
- Cmax [1, 4]: 6970 ± 807 ng/mL
- Tmax [1, 4]: 0.45 ± 0.11 h
- half-life [1, 4]: 575 ± 372 min
- AUC(0-t) [1, 5]: 2470 ± 418 ng·h/mL
- Cmax [1, 5]: 1050 ± 240 ng/mL
- Tmax [1, 5]: 0.083 h
- half-life [1, 5]: 538 ± 131 min
- AUC(0-t) [1, 6]: 18300 ± 6990 ng·h/mL
- Cmax [1, 6]: 1340 ± 585 ng/mL
- Tmax [1, 6]: 3 ± 1.41 h
- half-life [1, 6]: 539 ± 126 min
- AUC(0-t) [1, 7]: 4170 ± 1140 ng·h/mL
- Cmax [1, 7]: 276 ± 69 ng/mL
- Tmax [1, 7]: 8.8 ± 4.6 h
- half-life [1, 7]: 330 ± 21.6 min
- AUC0–t, fold higher in CCl4-induced rats than in control rats [1, 8]: 16.4 fold
- AUC0–t, fold higher than that of EZE-Hy [1, 8]: approximately 2.5 fold
- AUC0–t, fold higher in CCl4-induced rats than in control rats [1, 9]: 4.4 fold
- Autosampler stability (4°C, 24 h), RE ([2]; HQC (800/2400/800 ng/ml)): 6.0%
- Post-extraction stability (room temperature 3 h), RE ([2]; HQC (800/2400/800 ng/ml)): 5.1%
- Autosampler stability (4°C, 24 h), RE ([2]; LQC (3.00/9.00/3.00 ng/ml)): 5.3%
- Post-extraction stability (room temperature 3 h), RE ([2]; LQC (3.00/9.00/3.00 ng/ml)): 8.8%
- stability in rat plasma under the test conditions [2]: stable
- Freeze-thaw stability (−20°C, three cycles), RE ([2]; HQC (800/2400/800 ng/ml)): -0.4%
- Short-term stability (room temperature 3 h), RE ([2]; HQC (800/2400/800 ng/ml)): 0.3%
- Freeze-thaw stability (−20°C, three cycles), RE ([2]; LQC (3.00/9.00/3.00 ng/ml)): 0.8%
- Short-term stability (room temperature 3 h), RE [2, 10]: -1.9%
- stability in blood [2]: stable
- +ATP/-ATP ratio (MRP2; MRP2 vesicles): 65.5
- +ATP/-ATP ratio (MRP3; MRP3 vesicles): 5.71
- AUC(0-t) [3, 11]: 12500 ng·h/mL
- AUC(0-t) [3, 12]: 2580 ng·h/mL
- AUC(0-t) [3, 13]: 15900 ng·h/mL
- AUC(0-t) [3, 14]: 14800 ng·h/mL
- AUC0-t in femoral vein blood, fold increase in CCl4-induced rats vs control [3]: 4.83 fold
- AUC0–t portal vein plasma vs femoral vein plasma, fold higher ([3]; CCl4-induced rats): 1.28 fold
- AUC0–t portal vein plasma vs femoral vein plasma, fold higher ([3]; control rats): 5.75 fold
SMILES: O=C(O)[C@H]1O[C@@H](Oc2ccc([C@@H]3[C@@H](CC[C@H](O)c4ccc(F)cc4)C(=O)N3c3ccc(F)cc3)cc2)[C@H](O)[C@@H](O)[C@@H]1O [EZE-Ph, ezetimibe phenoxy β-D-glucuronide]
